Results published in patent US20070207454A1, “Novel method to identify targets for antibiotic development” (priority 2001, published 2007).

Key:
[1] = target: C1 lysin (Streptococcus phage C1, UniProt Q7Y3F3); assay: Competition experiments with monosaccharides or cell wall carbohydrate extracts; format: cell-based, C1 bacteriophage; conditions: 20 mM monosaccharide
Procedure: FIG. 7 is a bar graph illustrating lysin pretreated with […] Sugar (GlcNAc for A, L-Rhamnose for AV, or GalNAc for C), or extracted Group A carbohydrate (10 mg/ml). The black marker indicates buffer pretreatment; the gray marker indicates sugar pretreatment; and the white marker indicates Group A carbohydrate pretreatment.
Competition experiments. The three groups of cells were pretreated with monosaccharide or buffer containing 20 mM monosaccharide (GlcNAc for A, L-rhamnose for AV, or GalNAc for C), or extracted Group A carbohydrate (10 mg/ml) prior to exposure to the C1 lysin.

[2] = test system: PlyG lysin; format: cell-based, γ phage of Bacillus anthracis; conditions: for blocking of PlyG's killing ability: bacillus RSVF, competition assay
[3] = test system: RSVF1; conditions: cited from earlier work

Sequence of C1 lysin (Q7Y3F3 whole entry, looked up): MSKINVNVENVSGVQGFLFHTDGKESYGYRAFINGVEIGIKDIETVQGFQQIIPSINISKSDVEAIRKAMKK

CC(=O)N[C@H]1C(O)O[C@H](CO)[C@H](O)[C@@H]1O (some centres unmarked) [GalNAc, N-acetyl-galactosamine]
effect of competitor on lysin activity ([1]; group C cells): no decrease

C[C@H](O)[C@H](O)[C@@H](O)[C@@H](O)C=O [L-Rhamnose]
effect of competitor on lysin activity ([1]; AV cells): no decrease

CC(=O)N[C@H]1C(O)O[C@H](CO)[C@@H](O)[C@@H]1O (some centres unmarked) [N-acetylglucosamine]
concentration that could block the lethal action of PlyG ([2]; exponential phase RSVF1, 15 min at 37° C., CFU ml^-1, FIG. 10): ≤ 0.5 mM
effect of competitor on lysin activity ([1]; group A cells): no decrease

CC(=O)N[C@@H]1C(O)O[C@H](CO)[C@@H](O)[C@@H]1O (some centres unmarked) [N-acetylmannosamine]
blocking of PlyG's killing ability [2]: Neither galactose nor N-acetylmannosamine blocked

O=C[C@H](O)[C@@H](O)[C@@H](O)[C@H](O)CO [galactose]
blocking of PlyG's killing ability [2]: Neither galactose nor N-acetylmannosamine blocked

CO[C@@H]1[C@@H](OC(N)=O)[C@@H](O)[C@H](Oc2ccc3c(O)c(NC(=O)c4ccc(O)c(CC=C(C)C)c4)c(=O)oc3c2C)OC1(C)C [novobiocin]
increase in resistance after EMS mutagenesis [3]: 1,000 fold

[H]/N=C(/N)N[C@H]1[C@H](O)[C@@H](O)[C@H](O[C@@H]2O[C@@H](C)[C@](O)(C=O)[C@H]2O[C@@H]2O[C@@H](CO)[C@H](O)[C@@H](O)[C@@H]2NC)[C@@H](N/C(N)=N\[H])[C@@H]1O [streptomycin]
increase in resistance after EMS mutagenesis [3]: 10,000 fold
